Measurements from PMC12040169 (PLOS Biology, 2025).

Test: in vitro
Settings: human, hela cells, % viability

| Structure (SMILES) | viability at 28.5 h, 10 µM [%] |
| --- | --- |
| c1cncc(COc2nccnc2N2CCN(CCN3CCOCC3)CC2)c1 [CBK083141] | 104 |
| COC(=O)c1ccc2c(=O)n(CC(C)C)c(SC)nc2c1 [CBK306042] | 81.3 |
| CS(=O)(=O)CCNC(=O)c1cnc(-c2ccc(F)cc2)c(-c2ccco2)c1 [CBK037505] | 93.1 |
| O=c1[nH]nc(SCCCOc2ccc(Cl)cc2)n1C1CC1 [CBK295597] | 115 |
| O=C(O)C1Nc2c(C(=O)N3CCOCC3)cccc2C2C=CCC12 (centres unmarked) [CBK275006] | 104 |
| CC1(c2cc(F)ccc2F)NC(=O)N(c2ccncc2)C1=O (centres unmarked) [CBK291253] | 92.9 |
| COC1C(O)C(CO)OC1n1ccc(=O)[nH]c1=O (centres unmarked) [CBK201166] | 93.6 |
| O=C(c1ccno1)N1CCc2ccccc21 [CBK200409] | 104 |
| Oc1cccc2c1OCO2 [CBK000070] | 85.8 |
| Cc1csc2ncc(C(=O)Nc3ccccc3C(F)(F)F)c(=O)n12 [CBK287456] | 86.4 |
| Cc1ccc(CC(=O)N2CCC(c3ncc(C(=O)Nc4ccc(F)cc4)c(C)n3)CC2)cc1 [CBK285884] | 111 |
| CC(C)/C=N/N=C1\NC(=O)CS1 [CBK023706] | 90.7 |
| COC1CCN(C(=O)OCCc2cccnc2)CC1 [CBK200161] | 89.2 |
| CCN1CCN(C(=O)c2cc(C)[nH]n2)CC1 [CBK200377] | 108 |
| Cc1cccc(NCC2CCN(CC(=O)Nc3cc(C)on3)C2)n1 (centres unmarked) [CBK306118] | 90.4 |
| Cc1n[nH]c(O)c1C(c1ccc(OC(=O)c2ccccc2Cl)cc1)c1c(C)n[nH]c1O [CBK264520] | 101 |
| Cc1ccc(S(=O)(=O)CC(=O)Nc2nc3ccc(C)cc3s2)cc1 [CBK287705] | 89.8 |
| O=C(N[C@H]1C[C@H]2C(=O)Nc3ccccc3C(=O)N2C1)c1cccnc1 [CBK289356] | 110 |
| CC(CNCC1CCCO1)COc1cccc(Cl)c1 (centres unmarked) [CBK058789] | 96 |
| C/C(=C\c1ccccc1)CN1CCC(C(=O)N2CCN(Cc3ccc4c(c3)OCO4)CC2)CC1 [CBK264327] | 94.1 |
| O=C(O)c1ccc(CSc2nnnn2-c2ccccc2)cc1 [CBK286726] | 85.1 |
| COC(=O)c1c(C)n[nH]c1COc1ccccc1 [CBK057823] | 92.1 |

| Structure (SMILES) | viability at 28.5 h, 10 µM [%] |
| --- | --- |
| Cn1ccnc1C1(O)CCN(C(=O)CC2CCCCC2)CC1 [CBK283647] | 97.2 |
| COC(=O)c1c(NC(=S)NNC(=O)c2nn(C)cc2I)sc2c1CCC2 [CBK267074] | 97.7 |
| Cc1cc(C)n2nc(S(N)(=O)=O)c(C#N)c2n1 [CBK025767] | 90.7 |
| CN(C)CCN(Cc1ccncc1)Cc1cc(F)cc(F)c1 [CBK283096] | 94.9 |
| O=C(NCC(c1ccccc1)c1ccccc1)N1CCN(c2ccccc2)CC1 [CBK155197] | 89.8 |
| CCOC(=O)c1cn(CC)c2cc(F)c(OCC)cc2c1=O [CBK307139] | 87.8 |
| Cc1nn(CC(=O)N2CCCCC2)c(=O)c2cc3sccc3n12 [CBK284040] | 93.6 |
| CCCOc1ccc(Cc2nc(N(C)C)cc(N(C)C)n2)cc1 [CBK008318] | 102 |
| OC(CN1CCN(c2ccc(C(F)(F)F)cn2)CC1)c1ccc2c(c1)OCCO2 (centres unmarked) [CBK074707] | 104 |
| O=C(NC(=O)C1CCN(CCc2ccc3c(c2)CCO3)CC1)Nc1ccccc1Cl [CBK035147] | 84.3 |
| CCCNc1nccnc1-c1ccc(F)c(Cl)c1 [CBK037100] | 104 |
| CC(NC(=O)c1ccccc1)c1nnc(SCC(=O)N2CCOCC2)n1C (centres unmarked) [CBK269647] | 86 |
| CC(=O)c1ccc(-c2nccnc2NCCc2ccncc2)s1 [CBK037300] | 99.9 |
| Nc1ccc([C@@H]2CN(Cc3ccccc3)C[C@]23CCCC(=O)N3)cc1 [CBK284649] | 97.5 |
| O=C(O)CC1C(=O)NCCN1Cc1ccc(-c2ccccc2)cc1 (centres unmarked) [CBK269812] | 91 |
| Cc1cc(C(F)(F)F)n(CC(C)CNC(=O)Cc2csc(C)n2)n1 (centres unmarked) [CBK306733] | 87.8 |
| O=S(=O)(c1ccccc1)C1C2C=CC(COC3CCCCO3)(O2)C1S(=O)(=O)c1ccccc1 (centres unmarked) [CBK020045] | 92.6 |
| CCN1C(=O)S/C(=C/c2ccc(OCc3cccc(C(=O)O)c3)cc2)C1=O [CBK265605] | 106 |
| O=C(CSc1nnc(CCc2ccccc2)n1-c1ccc(Cl)cc1)c1ccccc1 [CBK266277] | 88.9 |
| CC(C)(C)NC(=O)N/N=C/c1[nH]ncc1Br [CBK017439] | 96 |
| Cc1ccc(NC(=O)N(C)C2CCN(C)C2)cc1 (centres unmarked) [CBK156023] | 103 |
| COc1ccccc1N1CCN(c2ccc([N+](=O)[O-])cc2C(=O)O)CC1 [CBK286692] | 96.3 |

| Structure (SMILES) | viability at 28.5 h, 10 µM [%] |
| --- | --- |
| CCN(CCn1cccn1)c1nc2nonc2nc1NC1CCCC1 [CBK307589] | 106 |
| CC(C)c1nnc(NS(=O)(=O)Cc2ccccc2)s1 [CBK045540] | 93 |
| CC1(CC(=O)N2CCCCCC2)SC(NC2CCCCCC2)=NC1=O (centres unmarked) [CBK074269] | 96 |
| COC(=O)C1(Cc2ccccc2-c2ccncc2)CCOCC1 [CBK284709] | 95.2 |
| CCOCC(=O)N(C)C1CCN(c2ncnc3ccccc23)CC1 [CBK306247] | 89.1 |
| COCC(=O)N1CCC(c2cc(-c3ccc(F)cc3)n[nH]2)C1 (centres unmarked) [CBK284600] | 101 |
| Cc1ccc(C(=O)NCC2COc3ccccc3O2)c(N2CCN(C(=O)c3ccco3)CC2)n1 (centres unmarked) [CBK076356] | 93.9 |
| CC1(C)CC(CC(=O)NN)(c2ccccc2)CCO1 (centres unmarked) [CBK261358C] | 86.6 |
| COc1ccc(S(=O)(=O)N(Cc2c(F)cccc2F)C2CCN(C)CC2)cc1 [CBK161910T] | 109 |
| C(=C\c1ccccc1)/CN1CCC(Cc2ccccc2)CC1 [CBK126384] | 119 |
| Cc1ccc(S(=O)(=O)NCC(=O)Nc2cc3ccccc3c(Br)n2)cc1 [CBK063300] | 101 |
| CCOc1ccc(-c2cncc(Nc3ccc(C#N)cc3)n2)cc1 [CBK065862] | 87.2 |
| CCC(C)NC(=O)c1ccc2nccnc2c1 (centres unmarked) [CBK268921] | 89.4 |
| Cc1cc(S(=O)(=O)Nc2ccccc2-c2nncn2C)c(C)o1 [CBK306414] | 85.9 |
| O=C(Nc1ccccc1N1CCN(C(=O)c2ccccc2)CC1)c1cccnc1 [CBK269948] | 100 |
| CSc1nc(O)c(C(c2ccc(C)cc2)c2c(O)nc(SC)nc2O)c(O)n1 [CBK265313] | 90.3 |
| Cc1cccc2c1CC(=O)NC21CCN(Cc2ccccc2)CC1 [CBK039819] | 87 |
| c1cnc(N2CCN(CCN3CCOCC3)CC2)c(OCCN2CCOCC2)n1 [CBK082899] | 105 |
| CS(=O)(=O)Nc1nccnc1N1CCNCC1 [CBK074045T] | 105 |
| O=C(CCN1CCCCC1)Nc1cnc(-c2ccc(F)cc2)c(-c2ccsc2)n1 [CBK036846] | 90.3 |
| O=C(Nc1ccccc1)c1ccc2c(c1)C(=O)N(c1cccc(N3C(=O)c4ccc(C(=O)Nc5ccccc5)cc4C3=O)n1)C2=O [CBK261197] | 91.5 |
| CC(NC(=O)C1CCN(Cc2cccnc2)CC1)c1ccc(F)cc1 (centres unmarked) [CBK148032] | 94.4 |

| Structure (SMILES) | viability at 28.5 h, 10 µM [%] |
| --- | --- |
| COc1ccc(C(C)C)cc1-c1cnc(N)c(NCc2ccncc2)n1 [CBK063695] | 97.5 |
| O=C1CC2(CCN(Cc3ccc(C(F)(F)F)cc3)CC2)CN1 [CBK283359] | 86.8 |
| COc1ccccc1N1C(=O)CC(N2CCC(C(N)=O)(N3CCCCC3)CC2)C1=O (centres unmarked) [CBK265533] | 84.3 |
| O=C(CSc1ccccn1)Nc1cccc(Cl)c1Cl [CBK057679] | 91.8 |
| CC(C)c1ccc(OCC(=O)NCc2ccccn2)c(Br)c1 [CBK265910] | 99.2 |
| COc1ccc([C@@]23CC[C@@H](NC(=O)Nc4cc(C)c(C)cc4[N+](=O)[O-])C[C@@H]2N(C)CC3)cc1OC [CBK036478T] | 67.8 |
| CCn1cc(CN(CCN(C)C)Cc2ccc(C)o2)c(C)n1 [CBK282845] | 79.6 |
| C=CCOc1ccc(CN(C)Cc2nc3cc(C(=O)O)ccc3c(=O)[nH]2)cc1 [CBK295156] | 101 |
| CCn1cc(C(=O)NN)c(=O)c2cc(F)c(N3CCCC3)cc21 [CBK307146] | 82.9 |
| COc1ccc(OCCNC(=O)c2cc(Br)cnc2N(C)C(C)=O)cc1 [CBK076467] | 104 |
| Cc1ccc(NC(=O)NC(=O)C2CCN(CCCc3ccc(F)cc3)CC2)cc1Cl [CBK035057] | 94.2 |
| COC(=O)CNC(c1cc(Br)ccc1N)c1ccccc1Cl (centres unmarked) [CBK262605] | 89 |
| CC(=O)c1ccc(NC(=O)N(C)c2c(C)nc3ccc(C(=O)N4CCN(C(=O)c5ccco5)CC4)cn23)cc1 [CBK146930] | 92.8 |
| CC(=O)c1ccc(NC(=O)[C@@]2(CC(=O)O)CC(c3ccc(F)cc3)=NO2)cc1 [CBK286663] | 85 |
| Cc1cc(Cl)c(OCCNCCN)c(Br)c1 [CBK265079] | 91.5 |
| CCCn1c(O)cc(=O)nc1SCC(=O)N1CCCc2ccccc21 [CBK304977] | 79.1 |
| CCc1ccc(C2=CC(c3cccc(C)c3)n3nnnc3N2)cc1 (centres unmarked) [CBK268095] | 88.6 |
| O=C(Cn1cccc2cc(C3CCNCC3)nc1-2)N1CCCC1 [CBK284680] | 98 |
| COc1ccc(NC(=O)c2cn(C)nc2CC2CCN(CCc3ccccc3)CC2)cc1 [CBK285559] | 90.9 |
| O=C(c1ccncc1)N1C2CCC1CC(c1ccc(F)cc1)C2 (centres unmarked) [CBK283763] | 94.3 |
| CS(=O)(=O)c1ccccc1C(=O)n1ccn(-c2cccc(C(F)(F)F)c2)c1=O [CBK106584] | 91.1 |

Same assay, conditions: human, hela cells, % viability, bulk resorufin, single well

| Structure (SMILES) | viability at 28.5 h, 10 µM [%] |
| --- | --- |
| COc1ccccc1C1OC(=O)CC1C(=O)N1CCC(C(C)=O)(c2ccccc2)CC1 (centres unmarked) [CBK091324] | 104 |
| O=C1NC(=O)C(=Cc2cccc(OC(F)(F)C(F)F)c2)C(=O)N1 [CBK265150] | 108 |
